Assay results reported in the NIST ThermoML archive (doi:10.1016/j.jct.2007.07.002).

Details: Gas, double Helmholtz acoustic resonator

O=C=O [carbon dioxide]
Details | kinematic viscosity [m2/s] | speed of sound [m/s]
220 K, 195.46 kPa | 2.37e-06 | 231.7
220 K, 226.71 kPa | 2e-06 | 231.05
220 K, 254.44 kPa | 1.79e-06 | 230.53
220 K, 288.21 kPa | 1.56e-06 | 229.81
220 K, 324.47 kPa | 1.37e-06 | 229.07
220 K, 362.71 kPa | 1.22e-06 | 228.29
220 K, 393.15 kPa | 1.12e-06 | 227.64
220 K, 425.51 kPa | 1.03e-06 | 226.95
220 K, 449.74 kPa | 9.7e-07 | 226.42
220 K, 479.78 kPa | 9.02e-07 | 225.76
235 K, 224.78 kPa | 2.31e-06 | 238.87
235 K, 359.42 kPa | 1.42e-06 | 236.69
235 K, 452.88 kPa | 1.11e-06 | 235.12
235 K, 545.18 kPa | 9.13e-07 | 233.52
235 K, 638.46 kPa | 7.66e-07 | 231.87
235 K, 723.88 kPa | 6.71e-07 | 230.31
235 K, 803.31 kPa | 5.95e-07 | 228.81
250 K, 274.2 kPa | 2.15e-06 | 245.57
250 K, 372.33 kPa | 1.57e-06 | 244.25
250 K, 491.25 kPa | 1.17e-06 | 242.62
250 K, 595.84 kPa | 9.53e-07 | 241.15
250 K, 702.28 kPa | 7.98e-07 | 239.62
250 K, 818.89 kPa | 6.75e-07 | 237.9
250 K, 953.03 kPa | 5.71e-07 | 235.87
250 K, 1060.2 kPa | 5.07e-07 | 234.18
250 K, 1177.6 kPa | 4.5e-07 | 232.28
250 K, 1291.6 kPa | 4.03e-07 | 230.37
250 K, 1438.2 kPa | 3.54e-07 | 227.81
270 K, 196.61 kPa | 3.5e-06 | 255.77
270 K, 354.95 kPa | 1.95e-06 | 254.13
270 K, 526.01 kPa | 1.29e-06 | 252.3
270 K, 705.02 kPa | 9.47e-07 | 250.33
270 K, 898.25 kPa | 7.28e-07 | 248.16
270 K, 1076.5 kPa | 5.99e-07 | 246.1
270 K, 1287.1 kPa | 4.91e-07 | 243.58
270 K, 1446.7 kPa | 4.31e-07 | 241.62
270 K, 1630 kPa | 3.76e-07 | 239.29
270 K, 1846 kPa | 3.26e-07 | 236.43
270 K, 2079.6 kPa | 2.84e-07 | 233.19
270 K, 2316.1 kPa | 2.49e-07 | 229.71
270 K, 2509.6 kPa | 2.26e-07 | 226.69
285 K, 371.48 kPa | 2.07e-06 | 260.81
285 K, 575.25 kPa | 1.31e-06 | 258.96
285 K, 787.74 kPa | 9.44e-07 | 257
285 K, 1013 kPa | 7.22e-07 | 254.87
285 K, 1228.5 kPa | 5.87e-07 | 252.79
285 K, 1500.4 kPa | 4.72e-07 | 250.09
285 K, 1707.2 kPa | 4.09e-07 | 247.98
285 K, 1947.2 kPa | 3.52e-07 | 245.46
285 K, 2221.2 kPa | 3.03e-07 | 242.48
285 K, 2559.7 kPa | 2.58e-07 | 238.62
285 K, 2841.9 kPa | 2.27e-07 | 235.23
285 K, 3057.8 kPa | 2.06e-07 | 232.51
300 K, 313.43 kPa | 2.72e-06 | 267.83
300 K, 531.89 kPa | 1.58e-06 | 266.16
300 K, 748.54 kPa | 1.11e-06 | 264.48
300 K, 993.26 kPa | 8.26e-07 | 262.55
300 K, 1237 kPa | 6.54e-07 | 260.6
300 K, 1526.1 kPa | 5.22e-07 | 258.23
300 K, 1747.8 kPa | 4.5e-07 | 256.38
300 K, 1991.5 kPa | 3.9e-07 | 254.3
300 K, 2272.2 kPa | 3.37e-07 | 251.86
300 K, 2577.9 kPa | 2.92e-07 | 249.12
300 K, 2893.9 kPa | 2.57e-07 | 246.21
300 K, 3145.8 kPa | 2.33e-07 | 243.81
304.77 K, 317.81 kPa | 2.78e-06 | 269.84
304.77 K, 527.05 kPa | 1.65e-06 | 268.3
304.77 K, 745.25 kPa | 1.15e-06 | 266.69
304.77 K, 979.77 kPa | 8.66e-07 | 264.94
304.77 K, 1201.7 kPa | 6.98e-07 | 263.26
304.77 K, 1478.9 kPa | 5.59e-07 | 261.12
304.77 K, 1699.4 kPa | 4.82e-07 | 259.4
304.77 K, 1950 kPa | 4.14e-07 | 257.4
304.77 K, 2235.2 kPa | 3.57e-07 | 255.09
304.77 K, 2552.7 kPa | 3.07e-07 | 252.45
304.77 K, 2881 kPa | 2.69e-07 | 249.66
304.77 K, 3135.9 kPa | 2.44e-07 | 247.43
310 K, 342.08 kPa | 2.66e-06 | 271.86
310 K, 552.05 kPa | 1.63e-06 | 270.4
310 K, 773.76 kPa | 1.15e-06 | 268.86
310 K, 1018 kPa | 8.63e-07 | 267.13
310 K, 1259.3 kPa | 6.9e-07 | 265.4
310 K, 1549 kPa | 5.53e-07 | 263.3
310 K, 1786.6 kPa | 4.75e-07 | 261.55
310 K, 2055.6 kPa | 4.08e-07 | 259.54
310 K, 2363 kPa | 3.49e-07 | 257.19
310 K, 2708.8 kPa | 3e-07 | 254.5
310 K, 3078 kPa | 2.6e-07 | 251.56
330 K, 201.27 kPa | 5.17e-06 | 280.89
330 K, 402.42 kPa | 2.55e-06 | 279.73
330 K, 626.86 kPa | 1.62e-06 | 278.46
330 K, 846.53 kPa | 1.19e-06 | 277.21
330 K, 1059.3 kPa | 9.44e-07 | 276
330 K, 1333 kPa | 7.43e-07 | 274.43
330 K, 1559.3 kPa | 6.3e-07 | 273.12
330 K, 1813.1 kPa | 5.37e-07 | 271.64
330 K, 2103.2 kPa | 4.59e-07 | 269.94
330 K, 2423.4 kPa | 3.94e-07 | 268.06
330 K, 2778.7 kPa | 3.4e-07 | 265.94
330 K, 3067.6 kPa | 3.06e-07 | 264.21
350 K, 234.16 kPa | 4.97e-06 | 288.49
350 K, 440.84 kPa | 2.61e-06 | 287.51
350 K, 660.1 kPa | 1.73e-06 | 286.5
350 K, 905.02 kPa | 1.25e-06 | 285.36
350 K, 1143.5 kPa | 9.86e-07 | 284.25
350 K, 1347.8 kPa | 8.31e-07 | 283.31
350 K, 1584.4 kPa | 7.03e-07 | 282.2
350 K, 1873 kPa | 5.9e-07 | 280.86
350 K, 2228.5 kPa | 4.92e-07 | 279.21
350 K, 2447.3 kPa | 4.45e-07 | 278.19
350 K, 2827.2 kPa | 3.82e-07 | 276.43
350 K, 3133.8 kPa | 3.42e-07 | 275.01
370 K, 335.49 kPa | 3.82e-06 | 295.63
370 K, 537.7 kPa | 2.37e-06 | 294.86
370 K, 749.31 kPa | 1.7e-06 | 294.05
370 K, 964.83 kPa | 1.31e-06 | 293.24
370 K, 1228.5 kPa | 1.03e-06 | 292.24
370 K, 1449.3 kPa | 8.66e-07 | 291.41
370 K, 1714.1 kPa | 7.29e-07 | 290.42
370 K, 2019 kPa | 6.15e-07 | 289.27
370 K, 2382.7 kPa | 5.18e-07 | 287.93
370 K, 2771.7 kPa | 4.42e-07 | 286.5
370 K, 3095.9 kPa | 3.93e-07 | 285.31
